Structures can show the parent of a compound that is named as a salt. Bounds are passed on as bounds.

Test system in the first series: not given
Experiment: not given
Details: not given
Broadly, the melting point is the temperature, or range, at which the solid turns liquid. In turn, `O=C(O)CCCCN(CCc1cc(F)ccc1COc1ccc(C2CCCCC2)cc1)Cc1ccc(C(=O)O)cc1` [Example 12, 4-{[(4-Carboxybutyl)(2-{2-[(4-cyclohexylphenoxy)methyl]-5-fluorophenyl}ethyl)amino]methyl}benzoic acid] yielded a melting point greater than 250 °C.

The test system of a further series is arteria saphena rings. Put plainly: Vasorelaxant effect in vitro (phenylephrine-contracted arteria saphena rings). The series is classed as cell-based, Rabbits. The settings on record: Oryctolagus cuniculus; rabbit arteria saphena rings, contractions generated by phenylephrine, 0.1% DMSO; read-out: IC50, concentration necessary to reduce the height of the contraction of the control value by 50%. The procedure: Vasorelaxant Effect In Vitro
Rabbits are anesthetized or killed by intravenous injection of thiopental sodium (about 50 mg/kg) and exsanguinated. The arteria saphena is removed and divided into rings 3 mm wide. The individual rings are in each case mounted on a pair of hooks of triangular shape, open at the end and made of special wire (Remanium®) having a diameter of 0.3 mm. Under pretension, each ring is introduced into a 5 ml organ bath containing carbogen-gassed Krebs-Henseleit solution at 37° C. with the following composition (mM): NaCl: 119; KCl: 4.8; CaCl2×2H2O: 1; MgSO4×7H2O: 1.4; KH2PO4: 1.2; NaHCO3: 25; glucose: 10; bovine serum albumin: 0.001%. The force of contraction is detected with Statham UC2 cells, amplified and digitized via A/D converters (DAS-1802 HC, Keithley Instruments, Munich) and recorded in parallel on chart recorders. Contractions are generated by adding phenylephrine.
After several (generally 4) control cycles, the substance to be investigated is added in each further run in increasing dosage in each case, and the height of the contraction reached under the influence of the test substance is compared with the height of the contraction reached in the last preceding run. The concentration necessary to reduce the height of the control value by 50% (IC50) is calculated from this. The standard application volume is 5 μl. The DMSO content in the bath solution corresponds to 0.1%.
In the case of `O=C(O)CCCCN(Cc1ccc(C(=O)O)cc1)Cc1cccc(Oc2ccc(-c3ccc(C(F)(F)F)cc3)cc2)c1` [Example 2], the IC50 stood at 55 nM.
As for `O=C(O)CCCCN(Cc1ccc(C(=O)O)cc1)Cc1cccc(Oc2ccc(C3CCCCC3)cc2)c1` [Example 3, 4-({(4-Carboxybutyl)[3-(4-cyclohexylphenoxy)benzyl]amino}methyl)-benzoic acid hydrochloride], the IC50 amounted to 36 nM.
As to `O=C(O)CCCCN(CCc1ccccc1OC(F)(F)c1ccc(-c2ccc(C(F)(F)F)cc2)cc1)Cc1ccc(C(=O)O)cc1` [Example 6, 4-({(4-Carboxybutyl)[2-(2-{difluoro[4′-(trifluoromethyl)-1,1′-biphenyl-4-yl]methoxy}phenyl)ethyl]amino}methyl)benzoic acid], the IC50 is 0.041 nM.
For the compound `O=C(O)CCCCN(CCc1cc(F)ccc1COc1ccc(C2CCCCC2)cc1)Cc1ccc(C(=O)O)cc1` [Example 12, 4-{[(4-Carboxybutyl)(2-{2-[(4-cyclohexylphenoxy)methyl]-5-fluorophenyl}ethyl)amino]methyl}benzoic acid], the IC50 was determined as 0.4 nM.
With `O=C(O)CCCCN(CCc1cc(F)ccc1COc1ccc(-c2ccc(C(F)(F)F)cc2)cc1)Cc1ccc(C(=O)O)cc1` [Example 17], the IC50 is 0.26 nM.
